Data on 19 molecules can be found in patent US4223039A, “Therapeutically useful N-phenylaniline derivatives” (priority 1978, dated 1980).

Structures can show the parent of a compound that is named as a salt.

For series [1], the system named is painful syndrome provoked in mice by phenylbenzoquinone. As to the kind of experiment: animal or person. As to conditions: for Therapeutic Index LD 50/ED 50 / therapeutic index (in words): mice; for Therapeutic Index LD 50/ED 50: LD 50 (oral)/ED 50 (phenylbenzoquinone test); for therapeutic index (in words): LD 50/ED 50. The series is classed as in vivo. How it is done:
There is used the phenylbenzoquinone test according to a technique adapted from that of Siegmund (E), Proc. Soc. Exp. Biol. Med. 1957, 95, No. 4, 729-731.
It is attempted to antagonise, by previous administration (30 minutes before) of the test compounds, the painful syndrome provoked in mice (groups of 10 animals) by interperitoneal injection of phenylbenzoquinone and characterised by intermittent contractions of the abdomen, periodic torsions of the trunk and extension of the rear paws. The number of symtoms is counted for 20 minutes after administration of the phenylbenzoquinone to the control and treated groups and the percentage protection relative to the control group calculated.
For the most interesting compounds, studied at several doses chosen in geometric progression of ratio 2, the effective doses 50% (ED 50) which reduce by 50% the effects provoked by phenylbenzoquinone are determined. These ED 50s are sorted according to their limits of confidence calculated for a probability p=0.05 according to the method of Litchfield (J. T.) and Wilcoxon (F. A.), J. Pharmacol. Exp. Ther. 1949, 96, 99-113.
Calculation of the therapeutic index (LD 50/ED 50) enables appreciation of the interest of the compounds.

A short description of series [2]: Acute toxicity in mice after oral administration. As to conditions: mouse, in vivo, suspended in 10% gum arabic, survivors checked at 15 days. How it is done: The compounds have been administered at increasing doses (in geometric progression) to groups of five .female. SWISS, EOPS, NMRI/Han mice originating from the breeding of EVIC CEBA and of mean weight 25 g.
For oral administration, they are suspended in a 10% gum arabic solution.
The LD 50s are calculated by the method of Behrens (B) and Karber (C), (Arch. Exp. Path. Pharmakol. 1935, 177, 379-388).
The number of animals surviving in the different groups is finally checked 15 days after administration of the compounds.

Series [3] in a line: Solubility in distilled water. The series is classed as physicochemical.
Setting [4] is: Mus musculus, read-out: Percentage Protection.

As for `C[C@@H](C(=O)O)N(C(=O)c1ccc(Cl)cc1)c1cccc(C(=O)c2ccccc2)c1` [LJ 863, N-(3-Benzoylphenyl)-N-(4-chlorobenzoyl)-alanine], the inhibition in vivo at 320 mg/kg in series [1] (setting [4]) stood at 45%.

Broadly, the ED50 is the dose that gives a 50% effect, or the effect in half of the subjects. Low values mean greater potency, high ones weaker potency. One may read the LD50 as the dose expected to kill half of the subjects tested. On to `Cc1ccc(C(=O)c2cccc(NC(C)C(=O)O)c2)cc1` (centres unmarked) [LJ 867], for which, in series [1] (Mus musculus), the 50% effect level (ED50) was put at a dose of 32 mg/kg. In addition, in series [1] (setting [4]), the inhibition in vivo at 8.2 mg/kg was found to be 6%, the inhibition in vivo at 16.4 mg/kg came out at 32%, the inhibition in vivo at 32.75 mg/kg is 52% and the inhibition in vivo at 65.5 mg/kg was 70%. In series [1] (setting [4]), the inhibition in vivo at 131 mg/kg was determined as 92% and the inhibition in vivo at 262 mg/kg turned out to be 97%. In series [1], the “Therapeutic Index LD 50/ED 50” value came to 82 and the “therapeutic index (in words)” value is “very favourable therapeutic index”. The LD50 at 360 h in series [2] stood at 2620 mg/kg.

With `Cc1c(NC(C)C(=O)O)cccc1C(=O)c1ccc(Cl)cc1` (centres unmarked) [LJ 857], in series [1] (setting [4]), the inhibition in vivo at 62.5 mg/kg stood at 64%. The same molecule registered an LD50 at 360 h in series [2] of 1250 mg/kg.

Molecule `CC(=O)Oc1ccccc1C(=O)O` [Aspirin, reference compound] yielded an ED50 in series [1] (Mus musculus) of 60 mg/kg. Also, in series [1] (setting [4]), the inhibition in vivo at 9.4 mg/kg was determined as 4%, the inhibition in vivo at 18.75 mg/kg was found to be 20%, the inhibition in vivo at 37.5 mg/kg worked out at 31% and the inhibition in vivo at 75 mg/kg is 56%. Besides, in series [1] (setting [4]), the inhibition in vivo at 150 mg/kg amounted to 82% and the inhibition in vivo at 300 mg/kg amounted to 95%. Also, the “Therapeutic Index LD 50/ED 50” value in series [1] came out at 25. The LD50 at 360 h in series [2] is 1500 mg/kg.

`CN(CC(=O)O)c1cccc(C(=O)c2ccccc2)c1` [LJ 862, N-(3-Benzoylphenyl)-N-methyl-glycine] registered an ED50 in series [1] (Mus musculus) of 85 mg/kg. In addition, in series [1] (setting [4]), the inhibition in vivo at 20 mg/kg came to 6%, the inhibition in vivo at 40 mg/kg was 24%, the inhibition in vivo at 80 mg/kg turned out to be 49% and the inhibition in vivo at 160 mg/kg came to 78%. Further, the inhibition in vivo at 320 mg/kg in series [1] (setting [4]) was 89%.

`CC(Nc1cccc(C(=O)c2ccccc2)c1)C(=O)O` (centres unmarked) [LJ 843, The lysine salt of N-(3-benzoylphenyl)alanine monohydrate] came in with an ED50 in series [1] (Mus musculus) of 25 mg/kg. For the same molecule, in series [1] (setting [4]), the inhibition in vivo at 11.75 mg/kg amounted to 30%, the inhibition in vivo at 23.5 mg/kg stood at 38%, the inhibition in vivo at 47 mg/kg was found to be 66% and the inhibition in vivo at 93.75 mg/kg is 84%. In series [1] (setting [4]), the inhibition in vivo at 187.5 mg/kg is 91%. In series [1], the “Therapeutic Index LD 50/ED 50” value is recorded as 150 and the “therapeutic index (in words)” value is on record as “very favourable therapeutic index”. In series [2], this molecule returned an LD50 at 360 h of 3750 mg/kg. In series [3], the “solubility in distilled water” value is recorded as “very soluble in distilled water”.

Consider `CC(Nc1ccc(C(=O)c2cccs2)cc1)C(=O)O` (centres unmarked) [LJ 858], for which, in series [1] (setting [4]), the inhibition in vivo at 93.75 mg/kg is 78%. In series [2], this molecule displayed a 50% lethal dose (LD50) at 360 h of 1880 mg/kg.

Take `CC(Nc1ccc(C(=O)c2ccccc2)cc1)C(=O)O` (centres unmarked) [LJ 854]: in series [1] (Mus musculus), it took a dose of 32 mg/kg to reach the 50% effect level (ED50). In series [1] (setting [4]), the inhibition in vivo at 5.8 mg/kg is 6%, the inhibition in vivo at 11.75 mg/kg was found to be 11%, the inhibition in vivo at 23.5 mg/kg amounted to 25% and the inhibition in vivo at 47 mg/kg is 84%. Moreover, the inhibition in vivo at 93.75 mg/kg in series [1] (setting [4]) was 90%. Also, the “Therapeutic Index LD 50/ED 50” value in series [1] is 58. The 50% lethal dose (LD50) at 360 h in series [2] amounted to 1880 mg/kg.

For `O=C(O)CNc1cccc(C(=O)c2ccccc2)c1` [LJ 850], the inhibition in vivo at 33.75 mg/kg in series [1] (setting [4]) amounted to 28%. The molecule also had an LD50 at 360 h in series [2] of 675 mg/kg.

On to `CC(Nc1ccccc1C(=O)c1ccccc1)C(=O)O` (centres unmarked) [LJ 855], for which the ED50 in series [1] (Mus musculus) amounted to 16 mg/kg. In series [1] (setting [4]), the inhibition in vivo at 3.1 mg/kg amounted to 10%, the inhibition in vivo at 6.25 mg/kg was found to be 14%, the inhibition in vivo at 12.5 mg/kg turned out to be 37% and the inhibition in vivo at 25 mg/kg is 73%. The inhibition in vivo at 50 mg/kg in series [1] (setting [4]) turned out to be 92%. In addition, the “Therapeutic Index LD 50/ED 50” value in series [1] came out at 62. For the same molecule, the LD50 at 360 h in series [2] amounted to 1000 mg/kg.

For `Cc1ccc(C(=O)c2ccccc2)cc1NC(C)C(=O)O` (centres unmarked) [LJ 869], the ED50 in series [1] (Mus musculus) was 28 mg/kg. In series [1] (setting [4]), the inhibition in vivo at 8.1 mg/kg stood at 12%, the inhibition in vivo at 16.25 mg/kg was found to be 36%, the inhibition in vivo at 32.5 mg/kg is 51% and the inhibition in vivo at 65 mg/kg came out at 82%. Also, in series [1] (setting [4]), the inhibition in vivo at 130 mg/kg was determined as 96%. For the same molecule, in series [1], the “Therapeutic Index LD 50/ED 50” value worked out at 46. Moreover, the median lethal dose (LD50) at 360 h in series [2] was found to be 1300 mg/kg.

Regarding `C[C@H](Nc1cccc(C(=O)c2ccccc2)c1)C(=O)O` [LJ 874, N-(3-Benzoylphenyl)-alanine], the ED50 in series [1] (Mus musculus) was 35 mg/kg. In series [1] (setting [4]), the inhibition in vivo at 7.5 mg/kg is 3%, the inhibition in vivo at 15 mg/kg was found to be 20%, the inhibition in vivo at 30 mg/kg turned out to be 48% and the inhibition in vivo at 60 mg/kg was determined as 61%. The inhibition in vivo at 120 mg/kg in series [1] (setting [4]) was found to be 92%. In series [1], the “Therapeutic Index LD 50/ED 50” value is given as 71 and the “therapeutic index (in words)” value is given as “very favourable therapeutic index”. In addition, the 50% lethal dose (LD50) at 360 h in series [2] stood at 2500 mg/kg.

For `CC(Nc1cccc(C(=O)c2cccs2)c1)C(=O)O` (centres unmarked) [LJ 859], in series [1] (setting [4]), the inhibition in vivo at 125 mg/kg amounted to 77%. Further, the LD50 at 360 h in series [2] is 2500 mg/kg.

Take `Cc1c(NCC(=O)O)cccc1C(=O)c1ccc(Cl)cc1` [LJ 846, N-[3-(4-Chlorobenzoyl)-2-methyl-phenyl]glycine]: the ED50 in series [1] (Mus musculus) is 18 mg/kg. In series [1] (setting [4]), the inhibition in vivo at 5 mg/kg came to 6%, the inhibition in vivo at 10 mg/kg came to 40%, the inhibition in vivo at 20 mg/kg was determined as 48% and the inhibition in vivo at 40 mg/kg was 75%. In addition, the inhibition in vivo at 80 mg/kg in series [1] (setting [4]) was 90%. Further, in series [1], the “Therapeutic Index LD 50/ED 50” value came out at 89 and the “therapeutic index (in words)” value was “very favourable therapeutic index”. Also, the LD50 at 360 h in series [2] was 1600 mg/kg.

For `O=C(c1ccccc1)c1cccc(NC(C(=O)O)c2ccccc2)c1` (centres unmarked) [LJ 864], in series [1] (setting [4]), the inhibition in vivo at 40 mg/kg amounted to 7%, the inhibition in vivo at 80 mg/kg is 22%, the inhibition in vivo at 160 mg/kg was 31% and the inhibition in vivo at 320 mg/kg is 59%.

In the case of `Cc1c(NCC(=O)O)cccc1C(=O)c1ccccc1` [LJ 861], the 50% effective dose (ED50) in series [1] (Mus musculus) was 65 mg/kg. Besides, in series [1] (setting [4]), the inhibition in vivo at 20 mg/kg amounted to 24%, the inhibition in vivo at 40 mg/kg amounted to 36%, the inhibition in vivo at 80 mg/kg stood at 52% and the inhibition in vivo at 160 mg/kg came to 90%. The inhibition in vivo at 320 mg/kg in series [1] (setting [4]) came out at 96%. The “Therapeutic Index LD 50/ED 50” value in series [1] is 20. In addition, in series [2], the LD50 at 360 h came to 1300 mg/kg.

In the case of `CC(Nc1ccc(Cl)c(C(=O)c2ccccc2)c1)C(=O)O` (centres unmarked) [LJ 868], in series [1] (Mus musculus), the ED50 was over 180 mg/kg. In series [1] (setting [4]), the inhibition in vivo at 180 mg/kg is 32%. Also, the “Therapeutic Index LD 50/ED 50” value in series [1] is on record as under 10. The LD50 at 360 h in series [2] came out at 1800 mg/kg.

`Cc1ccc(C(=O)c2ccccc2)cc1NCC(=O)O` [LJ 871]: in series [1] (Mus musculus), the 50% effective dose (ED50) came to 120 mg/kg. Besides, in series [1] (setting [4]), the inhibition in vivo at 20 mg/kg is 3%, the inhibition in vivo at 40 mg/kg is 22%, the inhibition in vivo at 80 mg/kg is 34% and the inhibition in vivo at 160 mg/kg came to 59%. Besides, the inhibition in vivo at 320 mg/kg in series [1] (setting [4]) is 60%.

Regarding `CC(Nc1cccc(C(=O)c2ccc(Cl)cc2)c1)C(=O)O` (centres unmarked) [LJ 845], in series [1] (setting [4]), the inhibition in vivo at 87.5 mg/kg is 75%. The molecule also came in with an LD50 at 360 h in series [2] of 1750 mg/kg.
